One series concerns gammaglobin. Kind of series: Effect of isobutyramide on percentage of gammaglobin to total gamma plus betaglobin in anemic baboons in vivo. Further details: species or system baboon (Papio anubis). How it is done: (§1) Adult, male baboons (Papio anubis) were used as experimental animals. Three baboons were rendered anemic by daily phlebotomy for at least about 30 days, and maintained at hematocrit values of about 22% by daily phlebotomy. Each anemic baboon was treated with isobutyramide. One baboon (no. 767) received isobutyramide by oral formulation of 150 mg isobutyramide per ml of distilled sterile water administered through a naso-gastric tube three times per week for three weeks. This baboon received isobutyramide at a dosage of 600 mg per kg of body weight. Another baboon (no. 224) received isobutyramide by parenteral formulation of 150 mg isobutyramide per ml of distilled sterile water administered by intravenous infusion over a 30 minute period one time per day for three weeks. This baboon received isobutyramide at a dosage of 500 mg per kg of body weight. Another baboon (no. 207) received isobutyramide by parenteral formulation of 150 mg isobutyramide per ml of distilled sterile water administered by intravenous infusion over a 30 minute period one time per day for three days. This baboon received isobutyramide at a dosage of 500 mg per kg of body weight. The experiment was terminated with this baboon after three days due to an infection. Blood samples were taken throughout the course of treatment. Samples were assayed to determine the percentage of gammaglobin to total gamma-globin and betaglobin (Table 1) and the percentage of total reticulocytes containing gammaglobin, sometimes called "F-retics" (Table 2). The assay to measure the percentage of gammaglobin to total gamma-globin and betaglobin was by the method described in Perrine, S. P., et al., Delay In The Fetal Globin Switch In Infants Of Diabetic Mothers, New Eng. J. Med. vol.312, pp.334-338 (1985). The assay to measure the percentage of total reticulocytes containing gammaglobin was performed by the method described in Rogers, G., et al., Hematologic Response of Patients with Sickle Cell Disease To Treatment with Hydroxyurea, New Eng. J. Med., vol.322, pp.1037-1045 (1990).

Series [1] has as its system reticulocytes containing gammaglobin (F-retics). The series can be described thus: Effect of isobutyramide on percentage of F-retics to total reticulocytes in anemic baboons in vivo. Further details: species or system baboon (Papio anubis). How it is done: as §1
The test system of series [2] is erythroid progenitors from peripheral blood. The series can be described thus: Effect of isobutyramide in vitro on percentage of gammaglobin to total gamma plus betaglobin in cultured erythroid progenitors. It counts as cell-based, human. The conditions noted are these: 0.2 mM, about 14 days. The method, then: Cultures of erythroid progenitors from peripheral blood of patients having a betaglobin disorder and normal subjects were cultured for about 14 days in presence of 0.2 millimoles per liter ("mM") isobutyramide and the percentages of gammaglobin to total gamma plus betaglobin were assayed substantially according to the methods described in Perrine, S. P. et al., Sodium Butyrate Enhances Fetal Globin Gene Expression in Erythroid Progenitors of Patients With Hb SS and Beta Thalassemia, Blood, vol.74, pp.454-459 (1989). The patients with sickle-cell anemia are identified as "SS" and with beta-thalassemia as "beta-thal." Ages are specified in years.

Series [3] can be described thus: Plasma levels of isobutyramide after administration. It counts as in vivo, baboon and human. The method, then:
Adult, male baboons (Papio anubis) were used as experimental animals. Three baboons were rendered anemic by daily phlebotomy for at least about 30 days, and maintained at hematocrit values of about 22% by daily phlebotomy. Each anemic baboon was treated with isobutyramide. One baboon (no. 767) received isobutyramide by oral formulation of 150 mg isobutyramide per ml of distilled sterile water administered through a naso-gastric tube three times per week for three weeks. This baboon received isobutyramide at a dosage of 600 mg per kg of body weight. Another baboon (no. 224) received isobutyramide by parenteral formulation of 150 mg isobutyramide per ml of distilled sterile water administered by intravenous infusion over a 30 minute period one time per day for three weeks. This baboon received isobutyramide at a dosage of 500 mg per kg of body weight. […]
Isobutyramide was administered orally to the baboon (no.767) and parenterally to another baboon (no.224) as described in Example 3. The plasma concentrations of the isobutyramide at various times after a single oral dose to those baboons are shown in FIG. 1 (measured by gas liquid chromatography and expressed in millimoles per liter ("mM")). […]

For series [4] the following is noted: species not given; cited from earlier work.
The conditions of series [5]: standard assays; cited from earlier work.
For series [6] the following is noted: administered in therapeutically effective amounts; cited from earlier work.

Each structure is given as a SMILES string.

For the molecule `CC(C)C(N)=O` [isobutyramide, Isobutyramide], in the series on gammaglobin (anemic baboons, Tables 1 and 2), the “production of fetal hemoglobin in vivo” value is recorded as “significantly stimulated the production of fetal hemoglobin”. Moreover, the “Percentage of gammaglobin to total gamma plus betaglobin, treatment (highest achieved)” value is listed as 9% with gammaglobin (baboon 207, 500 mg per kg i.v. infusion over 30 min, once per day for three days, pre-treatment 0); 11% in the series on gammaglobin (baboon 224, 500 mg per kg i.v. infusion over 30 min, once per day for three weeks, pre-treatment 2); 12% with gammaglobin (baboon 767, 600 mg per kg oral (naso-gastric tube), three times per week for three weeks, pre-treatment 3). In addition, the “Percentage of F-retics to total reticulocytes, treatment” value in series [1] (baboon 207, 500 mg per kg i.v. infusion over 30 min, once per day for three days, pre-treatment 3) worked out at 15%; in series [1] (baboon 224, 500 mg per kg i.v. infusion over 30 min, once per day for three weeks, pre-treatment 16), 27%; in series [1] (baboon 767, 600 mg per kg oral (naso-gastric tube), three times per week for three weeks, pre-treatment 13) it was 17%. In series [2] (Table 3), the “production of fetal hemoglobin in culture” value was “significantly stimulated the production of fetal hemoglobin in culture”. The “Percentage of gammaglobin to total gamma plus betaglobin, treatment” value in series [2] (SS (sickle-cell anemia), age 10-11, pre-treatment 22) is recorded as 40%; in series [2] (SS (sickle-cell anemia), pre-treatment 17), 96%; in series [2] (SS (sickle-cell anemia), pre-treatment 42), 55%; in series [2] (SS (sickle-cell anemia), pre-treatment 70), 78%; in series [2] (beta-thal, newborn, pre-treatment 40), 50%; in series [2] (beta-thal, pre-treatment 65) it was 98%. Also, the “Percentage of gammaglobin to total gamma plus betaglobin, treatment” value was determined as 64% in series [2] (beta-thal, pre-treatment 70); 45% in series [2] (normal, newborn, pre-treatment 5); 26% in series [2] (normal, newborn, pre-treatment 20); 72% in series [2] (normal, newborn, pre-treatment 69). Also, the plasma levels entry in series [3] (oral and parenteral administration) was “sufficient to yield therapeutic effects”. Also, the half-life in series [3] (plasma, after oral or parenteral administration, species not specified (baboons and humans)) lay within 7.6 to 10.5 h. For the same molecule, in series [4], the “acute intravenous LD 50” value is “about 3 g per kilogram”. In series [5], the mutagenicity entry is reported as “not mutagenic”. In series [6], the toxicity entry was “substantially non-toxic”.

For orientation: half-life means the time in which the quantity being followed falls by half.

(Values after patent publication US5439939A, “Pharmaceutical compositions and methods using isobutyramide for treating betaglobin disorders” (Children's Hospital Medical Center of Northern California, priority 1992, dated 1995).)
